Measurements as given in patent US20150307520A1, “NOVEL HETEROARYL AND HETEROCYCLE COMPOUNDS, COMPOSITIONS AND METHODS THEREOF” (HUTCHISON MEDIPHARMA LIMITED, priority 2012, published 2015).

Key:
Assay type in all cases: biochemical
[1] = molecular target: p110β/p85α (Homo sapiens, UniProt P42338); experiment: Transcreener KINASE Assay, kinase inhibition of p110β/p85α; conditions: for PI3Kβ IH % @ 1 uM: 1 uM test compound; for IC50: read-out: PI3Kβ IC50
In short: (§1)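 Steps: compound (2% DMSO final) plus enzyme in HEPES/NaCl/EGTA/CHAPS/3 mM MgCl2/1 mM DTT buffer; start with PIP2/ATP addition (30 uM/10 uM solution); 80 min RT; add ADP detection mix, 60 min RT; read fluorescence polarization.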

[2] = molecular target: p110δ/p85α (Homo sapiens, UniProt O00329); experiment: Transcreener KINASE Assay, kinase inhibition of p110δ/p85α; conditions: for PI3Kδ IH % @ 1 uM: 1 uM test compound; for IC50: read-out: PI3Kδ IC50
Chain of p110δ/p85α (O00329 whole entry): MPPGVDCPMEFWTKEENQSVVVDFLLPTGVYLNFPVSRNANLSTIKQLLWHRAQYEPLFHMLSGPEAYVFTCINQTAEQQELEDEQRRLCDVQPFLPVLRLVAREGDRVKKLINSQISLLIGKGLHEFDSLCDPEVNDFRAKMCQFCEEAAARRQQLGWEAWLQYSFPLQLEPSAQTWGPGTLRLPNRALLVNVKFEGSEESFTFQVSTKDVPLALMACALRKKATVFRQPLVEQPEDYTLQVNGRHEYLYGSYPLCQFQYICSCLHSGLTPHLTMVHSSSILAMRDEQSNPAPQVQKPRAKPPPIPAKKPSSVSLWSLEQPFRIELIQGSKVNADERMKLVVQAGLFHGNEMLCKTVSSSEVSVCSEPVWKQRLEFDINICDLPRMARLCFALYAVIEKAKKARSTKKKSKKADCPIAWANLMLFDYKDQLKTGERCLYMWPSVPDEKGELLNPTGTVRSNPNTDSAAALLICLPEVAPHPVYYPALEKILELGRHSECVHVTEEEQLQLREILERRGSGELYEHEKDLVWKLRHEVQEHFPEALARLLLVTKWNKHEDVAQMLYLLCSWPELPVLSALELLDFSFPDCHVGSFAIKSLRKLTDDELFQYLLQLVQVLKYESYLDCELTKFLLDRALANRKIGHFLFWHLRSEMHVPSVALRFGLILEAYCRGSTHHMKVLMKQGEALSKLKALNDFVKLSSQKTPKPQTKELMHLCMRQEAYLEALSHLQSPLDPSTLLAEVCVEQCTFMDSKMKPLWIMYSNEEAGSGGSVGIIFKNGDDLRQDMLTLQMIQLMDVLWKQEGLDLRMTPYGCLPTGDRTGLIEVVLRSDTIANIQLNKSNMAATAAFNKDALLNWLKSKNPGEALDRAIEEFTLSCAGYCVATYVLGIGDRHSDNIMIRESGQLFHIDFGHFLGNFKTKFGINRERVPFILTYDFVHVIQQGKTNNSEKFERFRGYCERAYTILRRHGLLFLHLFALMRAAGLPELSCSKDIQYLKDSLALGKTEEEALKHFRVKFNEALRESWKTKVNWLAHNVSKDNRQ
Chain of p110δ/p85α (P27986 whole entry partner): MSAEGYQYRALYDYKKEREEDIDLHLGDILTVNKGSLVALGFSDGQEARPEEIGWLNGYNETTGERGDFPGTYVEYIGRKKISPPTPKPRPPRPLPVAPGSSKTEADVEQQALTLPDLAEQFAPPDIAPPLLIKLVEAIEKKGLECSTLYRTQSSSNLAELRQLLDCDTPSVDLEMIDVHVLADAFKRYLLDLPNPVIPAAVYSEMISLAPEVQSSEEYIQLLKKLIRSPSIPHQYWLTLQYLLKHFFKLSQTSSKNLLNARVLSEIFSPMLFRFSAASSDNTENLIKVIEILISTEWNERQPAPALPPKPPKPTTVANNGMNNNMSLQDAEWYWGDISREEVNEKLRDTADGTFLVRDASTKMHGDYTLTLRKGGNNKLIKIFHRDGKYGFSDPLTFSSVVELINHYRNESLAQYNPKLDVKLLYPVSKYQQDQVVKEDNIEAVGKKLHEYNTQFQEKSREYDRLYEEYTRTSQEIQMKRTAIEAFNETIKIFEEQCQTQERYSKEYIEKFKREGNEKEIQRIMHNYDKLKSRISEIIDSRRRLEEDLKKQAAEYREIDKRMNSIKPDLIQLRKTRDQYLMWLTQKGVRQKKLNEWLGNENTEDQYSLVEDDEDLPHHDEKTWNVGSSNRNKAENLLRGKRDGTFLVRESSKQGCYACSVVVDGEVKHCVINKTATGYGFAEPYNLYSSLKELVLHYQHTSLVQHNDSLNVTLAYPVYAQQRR
In short: as §1

[3] = molecular target: p110γ (Homo sapiens, UniProt P48736); experiment: Transcreener KINASE Assay, kinase inhibition of p110γ; conditions: for PI3Kγ IH % @ 1 uM: 1 uM test compound; for IC50: read-out: PI3Kγ IC50
Chain of p110γ (P48736 whole entry): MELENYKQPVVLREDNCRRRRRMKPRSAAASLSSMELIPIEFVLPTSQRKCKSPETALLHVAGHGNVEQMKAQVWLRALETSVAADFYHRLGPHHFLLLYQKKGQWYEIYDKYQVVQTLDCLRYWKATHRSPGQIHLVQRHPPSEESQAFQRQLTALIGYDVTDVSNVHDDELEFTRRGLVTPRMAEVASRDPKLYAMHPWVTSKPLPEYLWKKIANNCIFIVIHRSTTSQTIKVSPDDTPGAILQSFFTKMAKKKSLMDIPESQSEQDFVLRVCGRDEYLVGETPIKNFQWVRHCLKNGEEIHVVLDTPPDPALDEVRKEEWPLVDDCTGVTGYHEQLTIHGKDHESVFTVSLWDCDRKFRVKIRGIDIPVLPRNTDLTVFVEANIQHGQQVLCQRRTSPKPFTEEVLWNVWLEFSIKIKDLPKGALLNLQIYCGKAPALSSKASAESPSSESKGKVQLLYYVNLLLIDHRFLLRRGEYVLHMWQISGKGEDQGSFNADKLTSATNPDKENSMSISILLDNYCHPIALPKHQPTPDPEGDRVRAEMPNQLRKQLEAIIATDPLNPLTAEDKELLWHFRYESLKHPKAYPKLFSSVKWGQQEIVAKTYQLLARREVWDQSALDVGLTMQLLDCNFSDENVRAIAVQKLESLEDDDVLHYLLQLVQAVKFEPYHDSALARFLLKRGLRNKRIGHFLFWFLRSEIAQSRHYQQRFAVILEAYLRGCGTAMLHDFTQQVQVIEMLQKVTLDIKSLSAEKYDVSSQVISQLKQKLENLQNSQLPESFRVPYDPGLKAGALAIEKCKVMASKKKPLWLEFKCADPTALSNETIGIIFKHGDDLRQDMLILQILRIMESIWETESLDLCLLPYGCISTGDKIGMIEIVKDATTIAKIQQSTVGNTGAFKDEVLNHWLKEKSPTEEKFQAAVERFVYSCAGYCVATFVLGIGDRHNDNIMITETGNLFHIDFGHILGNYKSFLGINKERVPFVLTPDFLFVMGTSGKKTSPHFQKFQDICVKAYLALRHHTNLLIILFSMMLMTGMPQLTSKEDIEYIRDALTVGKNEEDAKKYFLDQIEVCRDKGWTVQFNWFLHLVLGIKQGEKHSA
In short: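 Steps: enzyme reaction with compound, 80 min at room temperature; add ADP detection reagent, incubate 60 min at room temperature; read fluorescence polarization. Inhibition and IC50 values are derived from the ADP signal.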

Chain of p110β/p85α (P42338 whole entry): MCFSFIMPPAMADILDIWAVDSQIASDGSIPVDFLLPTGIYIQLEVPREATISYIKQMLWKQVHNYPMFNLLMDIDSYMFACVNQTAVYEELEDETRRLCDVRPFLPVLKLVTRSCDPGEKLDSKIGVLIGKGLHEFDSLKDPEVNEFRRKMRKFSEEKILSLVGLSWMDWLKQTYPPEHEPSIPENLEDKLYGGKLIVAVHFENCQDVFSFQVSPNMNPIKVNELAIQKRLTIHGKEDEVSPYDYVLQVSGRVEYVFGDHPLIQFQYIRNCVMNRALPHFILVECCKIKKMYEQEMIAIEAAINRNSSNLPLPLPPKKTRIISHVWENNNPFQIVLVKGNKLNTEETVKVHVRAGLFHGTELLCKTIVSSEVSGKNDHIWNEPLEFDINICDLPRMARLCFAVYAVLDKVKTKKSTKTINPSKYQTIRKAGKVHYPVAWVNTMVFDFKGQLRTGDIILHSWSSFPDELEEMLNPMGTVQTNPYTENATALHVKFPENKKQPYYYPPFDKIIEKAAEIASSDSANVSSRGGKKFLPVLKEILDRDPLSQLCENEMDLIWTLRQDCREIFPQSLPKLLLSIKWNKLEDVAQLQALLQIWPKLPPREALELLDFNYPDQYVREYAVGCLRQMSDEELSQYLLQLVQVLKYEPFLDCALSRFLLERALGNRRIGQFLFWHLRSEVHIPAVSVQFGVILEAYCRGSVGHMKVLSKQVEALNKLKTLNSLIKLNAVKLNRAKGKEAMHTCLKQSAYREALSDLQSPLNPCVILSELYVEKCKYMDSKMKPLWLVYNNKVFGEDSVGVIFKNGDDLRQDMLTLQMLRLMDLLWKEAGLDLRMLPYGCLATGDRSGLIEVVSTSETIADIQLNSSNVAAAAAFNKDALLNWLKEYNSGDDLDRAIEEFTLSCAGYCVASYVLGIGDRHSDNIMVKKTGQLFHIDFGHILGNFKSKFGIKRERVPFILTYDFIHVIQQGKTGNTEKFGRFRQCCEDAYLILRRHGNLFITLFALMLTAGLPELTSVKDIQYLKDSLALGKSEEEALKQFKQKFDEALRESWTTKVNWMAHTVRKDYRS
Chain of p110β/p85α (P27986 2-724 partner): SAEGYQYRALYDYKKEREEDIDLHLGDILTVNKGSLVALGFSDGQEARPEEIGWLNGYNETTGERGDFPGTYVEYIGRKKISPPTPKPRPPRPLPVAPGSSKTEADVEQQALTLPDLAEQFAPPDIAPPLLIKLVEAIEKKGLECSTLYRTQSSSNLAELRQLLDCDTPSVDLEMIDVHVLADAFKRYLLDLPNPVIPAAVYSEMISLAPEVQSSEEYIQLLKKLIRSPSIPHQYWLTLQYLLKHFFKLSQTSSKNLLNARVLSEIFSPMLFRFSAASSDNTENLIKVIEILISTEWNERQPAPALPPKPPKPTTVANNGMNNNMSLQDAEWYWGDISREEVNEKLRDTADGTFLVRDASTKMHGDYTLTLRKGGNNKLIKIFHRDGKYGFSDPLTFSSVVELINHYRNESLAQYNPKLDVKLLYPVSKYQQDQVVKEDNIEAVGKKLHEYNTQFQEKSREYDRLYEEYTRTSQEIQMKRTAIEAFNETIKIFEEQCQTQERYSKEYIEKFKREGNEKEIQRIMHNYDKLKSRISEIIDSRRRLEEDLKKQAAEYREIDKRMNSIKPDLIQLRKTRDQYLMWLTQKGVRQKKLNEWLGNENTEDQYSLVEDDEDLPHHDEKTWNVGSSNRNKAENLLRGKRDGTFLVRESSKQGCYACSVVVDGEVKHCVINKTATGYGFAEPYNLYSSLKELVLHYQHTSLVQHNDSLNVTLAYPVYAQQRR

## CC(=O)c1c[nH]c2ncnc(N[C@@H](C)c3cn4ccc(F)c4c(=O)n3-c3ccccc3)c12 [Compound 406, (S)-3-(1-((5-acetyl-7H-pyrrolo[2,3-d]pyrimidin-4-yl)amino)ethyl)-8-fluoro-2-phenylpyrrolo[1,2-a]pyrazin-1(2H)-one]
[1]
  PI3Kβ IH % @ 1 uM: 7.7%
[2]
  PI3Kδ IH % @ 1 uM: 90.0%
  IC50: 0.073 µM
[3]
  PI3Kγ IH % @ 1 uM: 35.2%

## C[C@H]1CN(c2nc(N)ncc2C#N)C1c1nn2ccc(F)c2c(=O)n1-c1ccccc1 (stereo partly drawn) [Compound 430]
[1]
  PI3Kβ IH % @ 1 uM: 28.1%
[2]
  PI3Kδ IH % @ 1 uM: 93.9%
  IC50: 0.013 µM
[3]
  PI3Kγ IH % @ 1 uM: 87.3%
  IC50: 0.052 µM

## C[C@H]1CN(c2nc(N)ncc2C#N)C1c1nn2ccc(Cl)c2c(=O)n1-c1ccc(F)cc1 (stereo partly drawn) [Compound 432]
[1]
  PI3Kβ IH % @ 1 uM: 43.2%
[2]
  PI3Kδ IH % @ 1 uM: 81.3%
  IC50: 0.16 µM
[3]
  PI3Kγ IH % @ 1 uM: 89.0%
  IC50: 0.009 µM

## CC(=O)c1cnc(N)nc1NC(C)c1cn2ccc(Cl)c2c(=O)n1-c1cccc(F)c1 (stereo not drawn) [Compound 435]
[1]
  PI3Kβ IH % @ 1 uM: 91.2%
  IC50: 0.014 µM
[2]
  PI3Kδ IH % @ 1 uM: 99.7%
  IC50: 0.003 µM
[3]
  PI3Kγ IH % @ 1 uM: 83.7%

## Cc1nc(N)nc(N2C[C@H](C)C2c2nn3ccc(Cl)c3c(=O)n2-c2ccccc2)c1C#N (stereo partly drawn) [Compound 437]
[1]
  PI3Kβ IH % @ 1 uM: 97.1%
  IC50: 0.027 µM
[2]
  PI3Kδ IH % @ 1 uM: 96.3%
  IC50: 0.001 µM
[3]
  PI3Kγ IH % @ 1 uM: 91.3%
  IC50: 0.002 µM

## CC(=O)c1cnc(N)nc1N1C[C@H](C)C1c1nn2ccc(F)c2c(=O)n1-c1ccc(F)cc1 (stereo partly drawn) [Compound 438]
[1]
  PI3Kβ IH % @ 1 uM: 79.3%
  IC50: 0.273 µM
[2]
  PI3Kδ IH % @ 1 uM: 91.2%
  IC50: 0.023 µM
[3]
  PI3Kγ IH % @ 1 uM: 91.4%
  IC50: 0.006 µM

## Cc1nc(N)nc(N2C[C@H](C)C2c2nn3ccc(Cl)c3c(=O)n2-c2ccc(F)cc2)c1C#N (stereo partly drawn) [Compound 439]
[1]
  PI3Kβ IH % @ 1 uM: 93.0%
  IC50: 0.022 µM
[2]
  PI3Kδ IH % @ 1 uM: 98.1%
  IC50: 0.002 µM
[3]
  PI3Kγ IH % @ 1 uM: 92.4%
  IC50: 0.003 µM

## CC(=O)c1cnc(N)nc1N1CC[C@H]1c1nn2ccc(Cl)c2c(=O)n1-c1cccc(F)c1 [Compound 440]
[1]
  PI3Kβ IH % @ 1 uM: 20.3%
[2]
  PI3Kδ IH % @ 1 uM: 95.2%
  IC50: 0.011 µM
[3]
  PI3Kγ IH % @ 1 uM: 95.8%
  IC50: 0.017 µM

## Cc1nc(N)nc(N2CC[C@H]2c2nn3ccc(Cl)c3c(=O)n2-c2cccc(F)c2)c1C#N [Compound 441]
[1]
  PI3Kβ IH % @ 1 uM: 56.2%
[2]
  PI3Kδ IH % @ 1 uM: 95.5%
  IC50: 0.002 µM
[3]
  PI3Kγ IH % @ 1 uM: 97.7%
  IC50: 0.014 µM

## Cc1nc(N)nc(N2CC[C@H]2c2nn3ccc(Cl)c3c(=O)n2-c2ccc(F)cc2)c1C#N [Compound 442]
[1]
  PI3Kβ IH % @ 1 uM: 76.1%
[2]
  PI3Kδ IH % @ 1 uM: 94.2%
  IC50: 0.012 µM
[3]
  PI3Kγ IH % @ 1 uM: 94.6%
  IC50: 0.001 µM

## CC(=O)c1c[nH]c2ncnc(N3CC(=O)C[C@H]3c3nn4ccc(F)c4c(=O)n3-c3ccccc3)c12 [Compound 445]
[1]
  PI3Kβ IH % @ 1 uM: 22.3%
[2]
  PI3Kδ IH % @ 1 uM: 77.5%
  IC50: 0.24 µM
[3]
  PI3Kγ IH % @ 1 uM: 4.3%

## CC(=O)c1cnc(N)nc1N1CC(=O)C[C@H]1c1nn2ccc(F)c2c(=O)n1-c1ccccc1 [Compound 446]
[1]
  PI3Kβ IH % @ 1 uM: 20.1%
[2]
  PI3Kδ IH % @ 1 uM: 85.8%
  IC50: 0.319 µM
[3]
  PI3Kγ IH % @ 1 uM: 40.0%

## CC(=O)c1cnc(N)nc1N[C@@H](C)c1cc2ncc(Cl)n2c(=O)n1-c1ccccc1 [Compound 447, (S)-7-(1-((5-acetyl-2-aminopyrimidin-4-yl)amino)ethyl)-3-chloro-6-phenylimidazo[1,2-c]pyrimidin-5(6H)-one]
[1]
  PI3Kβ IH % @ 1 uM: 95.8%
  IC50: 0.022 µM
[2]
  PI3Kδ IH % @ 1 uM: 99.5%
  IC50: 0.0004 µM
[3]
  PI3Kγ IH % @ 1 uM: >100%
  IC50: 0.004 µM

## Cc1nc(N)nc(N2C[C@H](C)[C@H]2c2nn3ccc(F)c3c(=O)n2-c2ccc(F)cc2)c1C#N [Compound 463]
[1]
  PI3Kβ IH % @ 1 uM: 89.6%
  IC50: 0.05 µM
[2]
  PI3Kδ IH % @ 1 uM: >100%
  IC50: 0.004 µM
[3]
  PI3Kγ IH % @ 1 uM: >100%
  IC50: 0.005 µM
